Key:
Assay in all cases: relative viability (nuclei count vs DMSO), 5 days (fraction); higher = more cells survive
[1] = system: HOP-62
Summary of the method: (§1)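 Lung cancer cell lines were seeded in 1536-well plates and dosed by pin tool the next day, with either a single drug or a fixed anchor-drug dose combined with five library-drug doses (not always all listed) spaced in √10 steps. Five days later, one step fixed the cells and stained their nuclei (final 0.05% Triton X-100, 1% formaldehyde, 1 ug/ml Hoechst), and nuclei were counted on 4× images. Relative viability is the nuclei count in treated wells divided by the count in vehicle wells, and each value is the median of duplicate plates.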

[2] = system: NCI-H647
Summary of the method: as §1

[3] = system: ABC-1
Summary of the method: as §1

[4] = system: HCC-827
Summary of the method: as §1

[5] = system: NCI-H596
Summary of the method: as §1

[6] = system: NCI-H2170
Summary of the method: as §1

[7] = system: NCI-H1563
Summary of the method: as §1

[8] = system: BEN
Summary of the method: as §1

[9] = system: NCI-H358
Summary of the method: as §1

[10] = system: NCI-H322M
Summary of the method: as §1

[11] = system: NCI-H1666
Summary of the method: as §1

[12] = system: NCI-H838
Summary of the method: as §1

[13] = system: NCI-H520
Summary of the method: as §1

[14] = system: PC-14
Summary of the method: as §1

[15] = system: LU99A
Summary of the method: as §1

[16] = system: UMC-11
Summary of the method: as §1

[17] = system: NCI-H1792
Summary of the method: as §1

[18] = system: EPLC-272H
Summary of the method: as §1

[19] = system: NCI-H727
Summary of the method: as §1

[20] = system: NCI-H23
Summary of the method: as §1

[21] = system: NCI-H1355
Summary of the method: as §1

[22] = system: NCI-H2405
Summary of the method: as §1

[23] = system: NCI-H1975
Summary of the method: as §1

[24] = system: NCI-H3122
Summary of the method: as §1

CCCCCCCCCCCC1=C(O)C(=O)C=C(O)C1=O [Embelin] + C[C@@H](Oc1cc(-c2cnn(C3CCNCC3)c2)cnc1N)c1c(Cl)ccc(F)c1Cl [Crizotinib] (partner 1 µM)
relative viability ([1]; first compound 0.08 µM): 0.957 | relative viability ([1]; first compound 0.8 µM): 0.926 | relative viability ([1]; first compound 2.53 µM): 0.857 | relative viability ([1]; first compound 8 µM): 0.82 | relative viability ([2]; first compound 0.08 µM): 1.44 | relative viability ([2]; first compound 0.8 µM): 1.08 | relative viability ([2]; first compound 2.53 µM): 1.48 | relative viability ([2]; first compound 8 µM): 1.17 | relative viability ([3]; first compound 0.08 µM): 0.896 | relative viability ([3]; first compound 0.8 µM): 1.26 | relative viability ([3]; first compound 2.53 µM): 1.7 | relative viability ([3]; first compound 8 µM): 1.21 | relative viability ([4]; first compound 0.08 µM): 0.98 | relative viability ([4]; first compound 0.8 µM): 0.931 | relative viability ([4]; first compound 2.53 µM): 0.976 | relative viability ([4]; first compound 8 µM): 0.977 | relative viability ([5]; first compound 0.08 µM): 1.06 | relative viability ([5]; first compound 0.8 µM): 1.62 | relative viability ([5]; first compound 2.53 µM): 1.2 | relative viability ([5]; first compound 8 µM): 1.01 | relative viability ([6]; first compound 0.08 µM): 1.22 | relative viability ([6]; first compound 0.8 µM): 1.18 | relative viability ([6]; first compound 2.53 µM): 1.4 | relative viability ([6]; first compound 8 µM): 1.36 | relative viability ([7]; first compound 0.08 µM): 0.8 | relative viability ([7]; first compound 0.8 µM): 0.837 | relative viability ([7]; first compound 2.53 µM): 0.785 | relative viability ([7]; first compound 8 µM): 0.899 | relative viability ([8]; first compound 0.08 µM): 0.845 | relative viability ([8]; first compound 0.8 µM): 1.18 | relative viability ([8]; first compound 2.53 µM): 1.17 | relative viability ([8]; first compound 8 µM): 0.849 | relative viability ([9]; first compound 0.08 µM): 0.635 | relative viability ([9]; first compound 0.8 µM): 0.851 | relative viability ([9]; first compound 2.53 µM): 0.547 | relative viability ([9]; first compound 8 µM): 0.791 | relative viability ([10]; first compound 0.08 µM): 0.901 | relative viability ([10]; first compound 0.8 µM): 1.22 | relative viability ([10]; first compound 2.53 µM): 1.07 | relative viability ([10]; first compound 8 µM): 1.16 | relative viability ([11]; first compound 0.08 µM): 0.975 | relative viability ([11]; first compound 0.8 µM): 1.24 | relative viability ([11]; first compound 2.53 µM): 1.05 | relative viability ([11]; first compound 8 µM): 1.01 | relative viability ([12]; first compound 0.08 µM): 0.874 | relative viability ([12]; first compound 0.8 µM): 0.995 | relative viability ([12]; first compound 2.53 µM): 0.961 | relative viability ([12]; first compound 8 µM): 1.02 | relative viability ([13]; first compound 0.08 µM): 0.894 | relative viability ([13]; first compound 0.8 µM): 1 | relative viability ([13]; first compound 2.53 µM): 1.07 | relative viability ([13]; first compound 8 µM): 0.782 | relative viability ([14]; first compound 0.08 µM): 0.916 | relative viability ([14]; first compound 0.8 µM): 0.845 | relative viability ([14]; first compound 2.53 µM): 0.921 | relative viability ([14]; first compound 8 µM): 0.891 | relative viability ([15]; first compound 0.08 µM): 0.605 | relative viability ([15]; first compound 0.8 µM): 0.736 | relative viability ([15]; first compound 2.53 µM): 0.55 | relative viability ([15]; first compound 8 µM): 0.606 | relative viability ([16]; first compound 0.08 µM): 0.639 | relative viability ([16]; first compound 0.8 µM): 0.618 | relative viability ([16]; first compound 2.53 µM): 0.644 | relative viability ([16]; first compound 8 µM): 0.572 | relative viability ([17]; first compound 0.08 µM): 0.997 | relative viability ([17]; first compound 0.8 µM): 0.974 | relative viability ([17]; first compound 2.53 µM): 1.19 | relative viability ([17]; first compound 8 µM): 0.964 | relative viability ([18]; first compound 0.08 µM): 0.802 | relative viability ([18]; first compound 0.8 µM): 1.08 | relative viability ([18]; first compound 2.53 µM): 1.4 | relative viability ([18]; first compound 8 µM): 0.765 | relative viability ([19]; first compound 0.08 µM): 0.938 | relative viability ([19]; first compound 0.8 µM): 0.924 | relative viability ([19]; first compound 2.53 µM): 1.06 | relative viability ([19]; first compound 8 µM): 0.898 | relative viability ([20]; first compound 0.08 µM): 0.554 | relative viability ([20]; first compound 0.8 µM): 0.56 | relative viability ([20]; first compound 2.53 µM): 0.55 | relative viability ([20]; first compound 8 µM): 0.705 | relative viability ([21]; first compound 0.08 µM): 1.08 | relative viability ([21]; first compound 0.8 µM): 1.18 | relative viability ([21]; first compound 2.53 µM): 1.17 | relative viability ([21]; first compound 8 µM): 0.974 | relative viability ([22]; first compound 0.08 µM): 0.908 | relative viability ([22]; first compound 0.8 µM): 0.976 | relative viability ([22]; first compound 2.53 µM): 0.892 | relative viability ([22]; first compound 8 µM): 0.955 | relative viability ([23]; first compound 0.08 µM): 1.1 | relative viability ([23]; first compound 0.8 µM): 0.999 | relative viability ([23]; first compound 2.53 µM): 1 | relative viability ([23]; first compound 8 µM): 1.04 | relative viability ([24]; first compound 0.08 µM): 0.296 | relative viability ([24]; first compound 0.8 µM): 0.293 | relative viability ([24]; first compound 2.53 µM): 0.273 | relative viability ([24]; first compound 8 µM): 0.282
